Experiment: Metabolic stability in human liver microsomes assessed as half life measured upto 60 mins by LC/MS-MS analysis
Type: ADME, Microsome

Row | half-life [min] | SMILES
1 | 13 | C[C@@H]1C[C@H](N)CN(c2ccncc2NC(=O)c2ccc(F)c(-c3ccccc3F)n2)C1
2 | 40 | C[C@@H]1C[C@H](N)CN(c2ccncc2NC(=O)c2ccc(F)c(-c3c(F)cccc3F)n2)C1
3 | > 180 | C[C@@H]1C[C@H](N)C[C@H](c2ccncc2NC(=O)c2ccc(F)c(-c3ccccc3F)n2)C1
